Results on 113 molecules are retold here after a melting point compilation (Tetko et al.).

The molecule `Nc1ccccc1/C=C/c1cc(/C=C/c2ccccc2)c([N+](=O)[O-])cc1[N+](=O)[O-]` showed a melting point of 193 °C.

`O=C(O)[C@H](Cc1ccccc1)NC(=O)C(F)(F)F` returned a melting point of 126 to 127 °C.

In turn, `CC(=O)c1csc2ccccc12` showed a melting point of 64 °C.

On to `Cn1nc(-c2ccccc2)cc1C(=O)Cl`, for which the melting point fell in the range of 88 to 89 °C.

`CC(=O)Oc1cc(-c2ccccc2)cc2ccccc12`: the melting point was found to be 60 °C.

`O=C(Cl)c1cccnc1Oc1ccccc1` gave a melting point of 90 to 91 °C.

`Ic1ccc(-c2ccc(I)cc2)cc1` showed a melting point of 207 °C.

`CC1(c2ccccc2)NC(=O)NC1=O` (stereo not drawn) returned a melting point of 199 to 201 °C.

`COCc1cc(=O)oc2cc(O)c(Cl)cc12` came in with a melting point of 196 to 198 °C.

In turn, `CNCc1ccc(-c2ccccc2)nc1` returned a melting point of 39 to 41.5 °C.

In turn, `O=Cc1ccc(-c2cccnc2)cc1` showed a melting point of 55 °C.

In turn, `O=C(Cl)c1ccccc1[N+](=O)[O-]` came in with a melting point of 17 to 20 °C.

Consider `CCCN(C(C)=O)c1ccccc1`, for which the melting point was determined as 49 °C.

For the molecule `COc1cc(C)nc(N)n1`, the melting point turned out to be 161 °C.

Regarding `COC(=O)c1cc(C=O)oc1C`, the melting point came out at 83 °C.

On to `CCCCCCCCCCCC#N`, for which the melting point was 4 °C.

Molecule `CC(C)(C)OOC(C)(C)CCC(C)(C)OOC(C)(C)C` showed a melting point of 8 °C.

On to `CC12CCC3c4ccc(OC(=O)c5ccccc5)cc4CCC3C1CCC2O` (stereo not drawn), for which the melting point was determined as 196 °C.

Consider `CSc1ccc(Oc2ccc(C(F)(F)F)cc2[N+](=O)[O-])cc1`, for which the melting point lay in the range of 41 to 43 °C.

`NC(=O)Nc1cccc(O)c1` came in with a melting point of 182 to 184 °C.

Molecule `CC(=O)C=C(C)N` yielded a melting point of 39 °C.

Regarding `c1ccc2c3c([nH]c2c1)CCCCC3`, the melting point worked out at 145 °C.

As to `Cc1cc(Cc2cc(C)cc(C3(C)CCCCC3)c2O)c(O)c(C2(C)CCCCC2)c1`, the melting point turned out to be 135 °C.

In the case of `O=c1n(CCO)c(=O)n(CCO)c(=O)n1CCO`, the melting point was 138 °C.

As to `Cc1nc2scc(-c3ccccc3)c2c(=O)n1NC(=O)c1ccc(F)cc1`, the melting point was in the range of 138 to 140 °C.

In turn, `CC12CCC3C(CCC4CC(CC(=O)O)=CCC43C)C1CCC2=O` (stereo not drawn) displayed a melting point of 175 to 178 °C.

For the molecule `O=S1(=O)OC(c2cc(Br)c(O)c(Br)c2)(c2cc(Br)c(O)c(Br)c2)c2c(Br)c(Br)c(Br)c(Br)c21`, the melting point lay within 203 to 205 °C.

Turning to `Cc1c(C(=O)O)cnn1-c1ccc(Cl)cc1`, the melting point was in the range of 201 to 202 °C.

The molecule `CC(=O)OC1(C(C)=O)CCC2C3C=C(Cl)C4=CC(=O)C=CC4(C)C3CCC21C` (stereo not drawn) returned a melting point of 168 °C.

`CC(C)CCC(C)C`: the melting point was -91 °C.

As to `Fc1cc(Br)c(Cl)c(Br)c1`, the melting point turned out to be 86 °C.

Take `COc1cc([N+](=O)[O-])ccc1Br`: the melting point was 104 °C.

In turn, `O=C(O)c1c(F)ccc(F)c1O` registered a melting point of 152 °C.

On to `Cc1ccc(N=c2sccn2C)c(C)c1`, for which the melting point amounted to 44 °C.

`CCOC(=O)C(C(C)=O)C(=O)c1ccc(C(=O)C(C(C)=O)C(=O)OCC)cc1` (stereo not drawn) gave a melting point of 99 °C.

The molecule `Cc1cccnc1C` gave a melting point of -17 °C.

`NC(=O)c1cc(F)ccc1F` displayed a melting point of 114 to 116 °C.

Consider `O=C(Cl)c1ccc(CCl)cc1`, for which the melting point lay within 29 to 33 °C.

The molecule `O=C(O)CC1(CC(=O)O)CCCCC1` registered a melting point of 181 to 185 °C.

In turn, `C[Si](C)(Cl)O[Si](C)(C)O[Si](C)(C)Cl` returned a melting point of -53 °C.

In turn, `CCCCCCCCCCCCN1CC(C(=O)O)CC1=O` (stereo not drawn) came in with a melting point of 39 °C.

Turning to `CC(C)C(OC(=O)c1cccnc1)c1ccc(Cl)cc1` (stereo not drawn), the melting point worked out at 61 °C.

Take `CC(=O)c1ccccc1O`: the melting point was determined as 5 °C.

Consider `Cc1ccc(Nc2ccc(C)cc2)cc1`, for which the melting point turned out to be 79.8 °C.

For `CC(C(C#N)C(N)=O)C(C#N)C(N)=O` (stereo not drawn), the melting point fell in the range of 151 to 160 °C.

Regarding `Cc1cc(C)c2c(c1)CC2(C)O` (stereo not drawn), the melting point is 58 °C.

In the case of `N#CCc1ccc2c(c1)OCO2`, the melting point lay within 43 to 45 °C.

The molecule `NC(=O)c1ccc(C(F)(F)F)nc1O` gave a melting point of 220 to 223 °C.

In turn, `O=[N+]([O-])c1cc([N+](=O)[O-])c(/C=C/c2ccccc2)cc1/C=C/c1ccccc1` gave a melting point of 193 °C.

As to `O=C1CC2(CCCC2)CC(=O)O1`, the melting point is 64 to 66 °C.

Molecule `NC(=NO)c1ccc(C(F)(F)F)cc1` registered a melting point of 125 to 128 °C.

Molecule `CCOC(=O)c1cncc(Br)c1` returned a melting point of 41 °C.

For `OC1c2ccccc2C=Cc2ccccc21`, the melting point was found to be 126 °C.

`O=C(O)c1cccc(C(=O)O)c1C(=O)O` returned a melting point of 200 °C.

Molecule `CC1(C)OC(=O)C(=NNc2ccc(Cl)cc2)C(=O)O1` registered a melting point of 156 °C.

In turn, `Oc1c(Cl)cc(Cl)c2ccccc12` returned a melting point of 108 °C.

Take `O=C(Cl)c1cnn(-c2ccccc2)c1C(F)(F)F`: the melting point is 40 to 41 °C.

Consider `C=C1C(=O)C23C4CC5C(C)(C=O)CCCC5(C(=O)O4)C2C(OC(C)=O)CC1C3O` (stereo not drawn), for which the melting point was 209 °C.

`N#CC(OC1OC(COC2OC(CO)C(O)C(O)C2O)C(O)C(O)C1O)c1ccccc1` (stereo not drawn): the melting point amounted to 224 °C.

As to `COc1cc(C=NNC(=O)CCn2c(C)nc3ccccc32)ccc1O`, the melting point was found to be 230 °C.

Turning to `O=C(O)Cc1ccc([N+](=O)[O-])cc1[N+](=O)[O-]`, the melting point turned out to be 180 °C.

`O=C(O)COc1ccc(CO)cc1` had a melting point of 112 °C.

With `CC1(C)CCCCC1O` (stereo not drawn), the melting point amounted to 8 °C.

On to `CC1=C(O)C(=O)C(C)O1` (stereo not drawn), for which the melting point worked out at 80.5 °C.

The molecule `NNC(=S)NC1CCCCC1` came in with a melting point of 142 to 145 °C.

`Oc1ccc(F)c(Cl)c1` displayed a melting point of 41 °C.

In the case of `CC(C(=O)O)c1ccc(Cl)cc1` (stereo not drawn), the melting point amounted to 57 °C.

In the case of `OCCCN1CCNCC1`, the melting point was 50 °C.

On to `Cn1c(CO)cc2sccc21`, for which the melting point lay within 103 to 104 °C.

In the case of `Fc1cc(F)c(Br)c(F)c1`, the melting point amounted to 4 °C.

The molecule `COC1OC(=O)c2ccccc21` (stereo not drawn) displayed a melting point of 43.7 to 44.4 °C.

`CCOC(=O)c1cc2cc3c4c(c2oc1=O)CCCN4CCC3` returned a melting point of 140 to 144 °C.

`O=P(O)(O)C(Cl)(Cl)P(=O)(O)O` gave a melting point of 250 °C.

In turn, `c1cocn1` yielded a melting point of -86 °C.

Molecule `COC(=O)[C@@]12[C@H]3c4c(c(-c5ccccc5)c5ccccc5c4-c4ccccc4)[C@@H]1C=C[C@]32C(=O)OC` returned a melting point of 210 °C.

`Oc1ccc2ccccc2c1/N=N/c1ccc(/N=N\c2ccccc2)cc1`: the melting point stood at 199 °C.

Turning to `O=C(COc1ncn(-c2ccc(Cl)cc2)n1)NNC(=S)NCc1ccccc1`, the melting point fell in the range of 133 to 135 °C.

`Cc1nc(Cl)ccc1I` displayed a melting point of 32 °C.

The molecule `COc1ccc(C2(C(=O)O)CCCC2)cc1` returned a melting point of 151 to 156 °C.

Molecule `NC1CCCCCCCCCCC1` displayed a melting point of 28 to 30 °C.

The molecule `O=C(O)c1cc(O)ccc1[N+](=O)[O-]` displayed a melting point of 170 °C.

Turning to `Cc1ccc(S(=O)(=O)OC2CCC3(C)C(CCC4C5CC(=O)CC5(C)CCC43)C2)cc1` (stereo not drawn), the melting point was in the range of 165 to 166 °C.

The molecule `Cc1cc(O)nc(N)n1` had a melting point of 300 °C.

As to `CC(C)(C)N(NC(=O)c1ccc(Cl)cc1)C(=O)c1ccccc1`, the melting point is 200 °C.

In turn, `Cn1c(=O)n(-c2cccc(Cl)c2)c(=O)c2c3c(sc21)CCCC3` had a melting point of 240 to 241 °C.

The molecule `CCOC(CN)OCC` displayed a melting point of -78 °C.

For `COC(=O)c1ccc(Cl)cc1N`, the melting point was determined as 67 °C.

The molecule `CN(C)c1ccc(C(c2ccc(N(C)C)cc2)c2ccc(N(C)C)cc2)cc1` showed a melting point of 180 °C.

Molecule `O=S(=O)(Cl)Cc1cccc(Br)c1` had a melting point of 88 to 89 °C.

`Cc1csc(C(N)=O)c1`: the melting point lay within 115 to 117 °C.

As for `CCOC(=O)c1c(NC(=O)CN(CC)CC)sc2c1CCCC2`, the melting point lay within 74 to 75 °C.

Consider `CC(=O)OCC(=O)C1(O)CCC2C3CCC4=CC(=O)CCC4(C)C3C(=O)CC21C` (stereo not drawn), for which the melting point is 222 °C.

In turn, `CSC(C)(C)C=NO` yielded a melting point of 21 °C.

As to `C1C2CC3CC1CC(C2)C3`, the melting point was determined as 267 °C.

On to `Cc1ccc(N(C)C(=S)Cl)cc1`, for which the melting point was in the range of 56 to 59 °C.

`CCCSc1ccccc1`: the melting point is -45 °C.

Regarding `CN(C(=S)C(=O)c1ccccc1)c1ccccc1`, the melting point came out at 109 °C.

`O=S(=O)(O)CS(=O)(=O)O` gave a melting point of 98 °C.

Turning to `CCOC(=O)N1CCN(C(=O)OCC)CC1`, the melting point was 47 °C.

As for `CC(=O)OC1CCC2C3CCC4CC(C(C)=O)=CCC4(C)C3CCC12C` (stereo not drawn), the melting point is 115 to 140 °C.

Molecule `CCCCCn1c(O)nnc1S` came in with a melting point of 146 to 149 °C.

The molecule `N#CC1(OC(=O)c2ccccc2)Cc2ccccc21` (stereo not drawn) had a melting point of 112 °C.

Turning to `CC(C)(C)C1CCC(O)CC1` (stereo not drawn), the melting point was found to be 66 °C.

On to `CCC(C)C(N)CO` (stereo not drawn), for which the melting point fell in the range of 36 to 39 °C.

`CC12CCC(C(=O)/C(=N\O)C1=O)C2(C)C` (stereo not drawn) displayed a melting point of 109 °C.

`O=C1OC(c2ccc([N+](=O)[O-])cc2)=NC1=Cc1ccccc1` showed a melting point of 236 °C.

On to `CCCCCCCCCCN(CCCCCCCCCC)CCCCCCCCCC`, for which the melting point is -5 to -3 °C.

On to `Clc1cc(Cl)nc(-c2ccccc2)n1`, for which the melting point worked out at 96.9 °C.

`Cc1ccc([Si](C)(c2ccc(C)cc2)c2ccc(C)cc2)cc1` had a melting point of 92 °C.

`OCc1cccnc1N1CCOCC1`: the melting point lay in the range of 80 to 83 °C.

Turning to `Oc1ccc2ccncc2c1`, the melting point came to 227 °C.

Take `Nc1cnccc1C(=O)O`: the melting point was 287 to 291 °C.

For the molecule `OC1CN(C(c2ccccc2)c2ccccc2)C1`, the melting point lay in the range of 106 to 111 °C.
